In article PMC8086025, “A benzopyran with antiarrhythmic activity is an inhibitor of Kir3.1-containing potassium channels” (The Journal of Biological Chemistry, 2021):
Entries after “also recorded” stand apart in the source; their conditions may differ. Ends that are not written are not given here.

Experiments:
5-HT2B = target: T1, 5-HT2B (Homo sapiens, UniProt P41595); assay: Radioligand binding, [125I](±)DOI; conditions: reference compound run for the assay
T1 construct: expressed in transfected cells; host or cells: CHO cells
T1 sequence (P41595 whole entry): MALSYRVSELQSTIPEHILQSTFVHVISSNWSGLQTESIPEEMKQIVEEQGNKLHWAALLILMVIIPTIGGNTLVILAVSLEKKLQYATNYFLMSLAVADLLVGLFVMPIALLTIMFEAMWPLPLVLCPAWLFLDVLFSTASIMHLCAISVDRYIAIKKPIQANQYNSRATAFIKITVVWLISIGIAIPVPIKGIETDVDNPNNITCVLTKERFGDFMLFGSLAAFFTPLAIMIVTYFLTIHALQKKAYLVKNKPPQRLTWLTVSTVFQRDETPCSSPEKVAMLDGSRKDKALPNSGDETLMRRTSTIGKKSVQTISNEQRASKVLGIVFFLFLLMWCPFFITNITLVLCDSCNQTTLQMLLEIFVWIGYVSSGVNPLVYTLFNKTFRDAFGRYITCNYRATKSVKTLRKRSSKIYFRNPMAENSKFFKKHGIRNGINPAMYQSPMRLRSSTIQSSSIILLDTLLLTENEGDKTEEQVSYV

Muscarinic M5 = target: T2, Muscarinic M5 (Homo sapiens, UniProt P08912); assay: Radioligand binding, [3H]4-DAMP; conditions: reference compound run for the assay
T2 construct: expressed in transfected cells; host or cells: CHO cells

IKACh = assay: In vivo ECG, carbachol-induced heart rate slowing in anesthetized mice; conditions: 300 μl of 200 μM i.p.
Description: We tested the in vivo effects of BP-G1 versus those of BP-G1(SR) on heart rate in anesthetized adult mice (Fig. 8). ECG was continuously recorded. Panel A is the ECG showing that after carbachol (300 μl of 200 μM) was administered, i.p. (red mark), the heart decelerated, with a visible RR prolongation. About 10 min after carbachol injection, BP-G1 was delivered via the jugular vein (40 μl of 240 μM) (green mark). Within 5 min, there was a reversal of carbachol’s effects on the heart rate. Panel B is a control mouse showing heart rate slowing after carbachol administration (red mark).
Mice were anesthetized (1.5% isofluorane), and a 1.2 French octapolar catheter (Millar) with a drug delivery port was placed transvenously, through the jugular vein, into the right atrium. Continuous ECG was recorded using the Animal Bio Amp and PowerLab 4/35 Advanced Instruments apparatus. […] Saline control at the same volume was performed. Results are averages ±SD.

Kir3.1/4 channel = target: T3, Kir3.1/4 channel (Homo sapiens, UniProt P48544+P48549); assay: TEVC in Xenopus oocytes, Kir3.1/4; format: cell-based; design: expressed in transfected cells; host or cells: Xenopus laevis oocytes (cRNA injection); conditions: 1 μM, TEVC
T3 sequence (P48549 1-501): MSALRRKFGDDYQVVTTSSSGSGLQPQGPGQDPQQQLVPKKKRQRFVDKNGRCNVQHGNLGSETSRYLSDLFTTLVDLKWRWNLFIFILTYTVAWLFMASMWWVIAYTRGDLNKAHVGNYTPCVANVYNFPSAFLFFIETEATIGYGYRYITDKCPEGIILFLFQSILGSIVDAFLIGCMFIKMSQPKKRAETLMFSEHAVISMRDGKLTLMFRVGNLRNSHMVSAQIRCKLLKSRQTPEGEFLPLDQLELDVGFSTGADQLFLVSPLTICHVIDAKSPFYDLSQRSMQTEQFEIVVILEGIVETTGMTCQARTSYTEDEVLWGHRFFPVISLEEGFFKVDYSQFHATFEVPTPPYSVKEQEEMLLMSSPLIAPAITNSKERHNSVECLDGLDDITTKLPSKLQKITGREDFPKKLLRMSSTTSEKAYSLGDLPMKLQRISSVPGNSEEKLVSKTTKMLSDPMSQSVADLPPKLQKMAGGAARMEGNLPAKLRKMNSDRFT
T3 sequence (P48544 1-419): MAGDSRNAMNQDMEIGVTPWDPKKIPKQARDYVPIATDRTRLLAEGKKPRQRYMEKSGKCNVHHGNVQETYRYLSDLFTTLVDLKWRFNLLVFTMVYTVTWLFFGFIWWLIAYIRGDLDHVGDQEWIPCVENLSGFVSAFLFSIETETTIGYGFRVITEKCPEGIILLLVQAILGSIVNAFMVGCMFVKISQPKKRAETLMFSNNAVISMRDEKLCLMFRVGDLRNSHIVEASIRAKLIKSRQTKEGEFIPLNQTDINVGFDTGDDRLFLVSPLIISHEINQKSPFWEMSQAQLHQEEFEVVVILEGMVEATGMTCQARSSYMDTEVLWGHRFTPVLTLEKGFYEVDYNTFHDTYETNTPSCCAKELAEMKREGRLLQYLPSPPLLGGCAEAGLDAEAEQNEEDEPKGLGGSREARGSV
Description: X. laevis oocytes were isolated and microinjected as previously described ([6]). Human Kir3.1, mouse Kir3.2, and human Kir3.4 DNA constructs were used for electrophysiology experiments. All cRNA constructs were injected in the amount of 2 ng per oocyte. Injected oocytes were incubated for 2 to 3 days at 18 °C to allow for expression. Whole-cell oocyte currents were then measured using a GeneClamp 500 amplifier (Axon Instruments). Microelectrodes had resistances of 0.5 to 1 megohm using a 3M KCl solution in 1.4% agarose. Oocytes were perfused with a low K^+ (LK) solution ND96 (2 mM KCl, 96 mM NaCl, 1 mM MgCl2, 1.8 mM CaCl2, 5 mM HEPES-Na) to establish a baseline for the recordings. Basal current was measured in a high potassium (HK) solution ND96K (96 mM KCl, 10 mM HEPES-K, 1 mM MgCl2, 1.8 mM CaCl2). To block the current, the oocyte chamber was perfused with 4 mM BaCl2 in ND96K. Only the Barium-sensitive current was used for statistical analysis. To measure the inhibitory activity of the channels, 1 μM BP-G1 in ND96K (HK) was used. Typically, oocytes were held at 0 mV (EK) and the current was monitored constantly using a ramp protocol with a command potential from −80 to +80 mV. Current amplitude was measured at the end of a 1 s sweep. All currents were analyzed when they reached steady state. Error bars in the figures represent SD (N > 4).

Kir3.1/3.4 = test system: Kir3.1/3.4; design: method as in earlier work; conditions: oocyte; published NTC-801 data ref 27; cited from earlier work
Kir3.1/3.2 = test system: Kir3.1/3.2; design: method as in earlier work; conditions: published NTC-801 data ref 27; cited from earlier work
GP IKACh = test system: GP IKACh; design: method as in earlier work; conditions: published NTC-801 data ref 27; cited from earlier work
Kir2.1 = target: T4, Kir2.1 (Homo sapiens, UniProt P63252); conditions: published NTC-801 data ref 27; cited from earlier work
T4 construct: host or cells: HEK293
T4 sequence (P63252 whole entry): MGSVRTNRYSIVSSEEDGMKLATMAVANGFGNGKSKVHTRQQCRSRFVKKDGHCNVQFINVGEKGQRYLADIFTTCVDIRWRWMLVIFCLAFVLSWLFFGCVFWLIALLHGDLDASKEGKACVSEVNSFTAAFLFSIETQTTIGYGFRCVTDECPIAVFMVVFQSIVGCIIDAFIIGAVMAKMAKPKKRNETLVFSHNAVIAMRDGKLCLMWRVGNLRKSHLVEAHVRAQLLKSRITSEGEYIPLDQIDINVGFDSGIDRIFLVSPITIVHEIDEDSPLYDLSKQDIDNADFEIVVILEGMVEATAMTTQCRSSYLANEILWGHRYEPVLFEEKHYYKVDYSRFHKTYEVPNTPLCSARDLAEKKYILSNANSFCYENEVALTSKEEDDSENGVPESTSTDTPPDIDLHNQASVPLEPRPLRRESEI

Kir6.2/SUR2A = target: T5, Kir6.2/SUR2A (Homo sapiens, UniProt O60706+Q14654); conditions: IKATP; published NTC-801 data ref 27; cited from earlier work
T5 construct: Andrew Tinker, UCL; host or cells: HEK293

Kv1.5 = Kv1.5 (Homo sapiens, UniProt P22460); conditions: published NTC-801 data ref 27; cited from earlier work
Sequence of Kv1.5 (P22460 whole entry): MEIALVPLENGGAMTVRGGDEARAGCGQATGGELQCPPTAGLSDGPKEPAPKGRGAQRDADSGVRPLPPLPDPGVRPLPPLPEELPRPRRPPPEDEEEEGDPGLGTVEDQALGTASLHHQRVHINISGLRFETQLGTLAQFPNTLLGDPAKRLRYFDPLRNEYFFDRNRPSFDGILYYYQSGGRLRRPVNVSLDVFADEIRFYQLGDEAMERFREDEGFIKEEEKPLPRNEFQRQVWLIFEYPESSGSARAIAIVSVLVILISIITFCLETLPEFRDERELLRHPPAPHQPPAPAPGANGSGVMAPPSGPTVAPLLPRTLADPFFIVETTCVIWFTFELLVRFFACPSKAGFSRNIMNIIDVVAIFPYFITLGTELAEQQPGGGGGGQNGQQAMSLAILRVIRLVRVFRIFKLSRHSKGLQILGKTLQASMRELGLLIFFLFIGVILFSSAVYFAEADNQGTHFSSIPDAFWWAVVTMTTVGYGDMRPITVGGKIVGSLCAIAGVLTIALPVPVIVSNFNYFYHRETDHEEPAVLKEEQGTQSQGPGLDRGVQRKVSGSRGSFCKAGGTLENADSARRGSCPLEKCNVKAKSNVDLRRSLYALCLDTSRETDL

Kv4.3 = Kv4.3 (Homo sapiens, UniProt Q9UK17); conditions: published NTC-801 data ref 27; cited from earlier work
Sequence of Kv4.3 (Q9UK17 whole entry): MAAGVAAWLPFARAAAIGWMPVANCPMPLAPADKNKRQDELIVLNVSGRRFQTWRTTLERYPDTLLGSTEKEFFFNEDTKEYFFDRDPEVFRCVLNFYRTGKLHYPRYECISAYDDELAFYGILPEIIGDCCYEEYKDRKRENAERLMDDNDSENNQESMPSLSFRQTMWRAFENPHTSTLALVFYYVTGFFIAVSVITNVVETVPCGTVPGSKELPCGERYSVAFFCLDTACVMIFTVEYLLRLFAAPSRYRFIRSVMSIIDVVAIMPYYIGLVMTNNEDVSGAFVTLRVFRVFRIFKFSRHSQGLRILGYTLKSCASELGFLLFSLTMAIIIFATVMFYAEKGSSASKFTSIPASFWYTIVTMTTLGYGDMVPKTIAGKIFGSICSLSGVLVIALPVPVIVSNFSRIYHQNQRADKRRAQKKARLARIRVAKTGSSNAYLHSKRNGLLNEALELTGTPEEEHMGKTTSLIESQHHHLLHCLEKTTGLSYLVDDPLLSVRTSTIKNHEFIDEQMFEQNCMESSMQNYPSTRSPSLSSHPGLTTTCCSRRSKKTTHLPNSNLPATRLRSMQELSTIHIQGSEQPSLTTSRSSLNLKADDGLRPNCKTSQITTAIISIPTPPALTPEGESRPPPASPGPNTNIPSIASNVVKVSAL

HCN4 = test system: HCN4; design: method as in earlier work; conditions: published NTC-801 data ref 27; cited from earlier work
Kv7.1/KCNE1 = conditions: published NTC-801 data ref 27; cited from earlier work
hERG = conditions: read-out: Published IC50, hERG; published NTC-801 data ref 27; cited from earlier work
Nav1.5 = Nav1.5 (Homo sapiens, UniProt Q14524); conditions: read-out: Published IC50, Nav1.5 (1Hz); published NTC-801 data ref 27; cited from earlier work
Sequence of Nav1.5 (Q14524 whole entry): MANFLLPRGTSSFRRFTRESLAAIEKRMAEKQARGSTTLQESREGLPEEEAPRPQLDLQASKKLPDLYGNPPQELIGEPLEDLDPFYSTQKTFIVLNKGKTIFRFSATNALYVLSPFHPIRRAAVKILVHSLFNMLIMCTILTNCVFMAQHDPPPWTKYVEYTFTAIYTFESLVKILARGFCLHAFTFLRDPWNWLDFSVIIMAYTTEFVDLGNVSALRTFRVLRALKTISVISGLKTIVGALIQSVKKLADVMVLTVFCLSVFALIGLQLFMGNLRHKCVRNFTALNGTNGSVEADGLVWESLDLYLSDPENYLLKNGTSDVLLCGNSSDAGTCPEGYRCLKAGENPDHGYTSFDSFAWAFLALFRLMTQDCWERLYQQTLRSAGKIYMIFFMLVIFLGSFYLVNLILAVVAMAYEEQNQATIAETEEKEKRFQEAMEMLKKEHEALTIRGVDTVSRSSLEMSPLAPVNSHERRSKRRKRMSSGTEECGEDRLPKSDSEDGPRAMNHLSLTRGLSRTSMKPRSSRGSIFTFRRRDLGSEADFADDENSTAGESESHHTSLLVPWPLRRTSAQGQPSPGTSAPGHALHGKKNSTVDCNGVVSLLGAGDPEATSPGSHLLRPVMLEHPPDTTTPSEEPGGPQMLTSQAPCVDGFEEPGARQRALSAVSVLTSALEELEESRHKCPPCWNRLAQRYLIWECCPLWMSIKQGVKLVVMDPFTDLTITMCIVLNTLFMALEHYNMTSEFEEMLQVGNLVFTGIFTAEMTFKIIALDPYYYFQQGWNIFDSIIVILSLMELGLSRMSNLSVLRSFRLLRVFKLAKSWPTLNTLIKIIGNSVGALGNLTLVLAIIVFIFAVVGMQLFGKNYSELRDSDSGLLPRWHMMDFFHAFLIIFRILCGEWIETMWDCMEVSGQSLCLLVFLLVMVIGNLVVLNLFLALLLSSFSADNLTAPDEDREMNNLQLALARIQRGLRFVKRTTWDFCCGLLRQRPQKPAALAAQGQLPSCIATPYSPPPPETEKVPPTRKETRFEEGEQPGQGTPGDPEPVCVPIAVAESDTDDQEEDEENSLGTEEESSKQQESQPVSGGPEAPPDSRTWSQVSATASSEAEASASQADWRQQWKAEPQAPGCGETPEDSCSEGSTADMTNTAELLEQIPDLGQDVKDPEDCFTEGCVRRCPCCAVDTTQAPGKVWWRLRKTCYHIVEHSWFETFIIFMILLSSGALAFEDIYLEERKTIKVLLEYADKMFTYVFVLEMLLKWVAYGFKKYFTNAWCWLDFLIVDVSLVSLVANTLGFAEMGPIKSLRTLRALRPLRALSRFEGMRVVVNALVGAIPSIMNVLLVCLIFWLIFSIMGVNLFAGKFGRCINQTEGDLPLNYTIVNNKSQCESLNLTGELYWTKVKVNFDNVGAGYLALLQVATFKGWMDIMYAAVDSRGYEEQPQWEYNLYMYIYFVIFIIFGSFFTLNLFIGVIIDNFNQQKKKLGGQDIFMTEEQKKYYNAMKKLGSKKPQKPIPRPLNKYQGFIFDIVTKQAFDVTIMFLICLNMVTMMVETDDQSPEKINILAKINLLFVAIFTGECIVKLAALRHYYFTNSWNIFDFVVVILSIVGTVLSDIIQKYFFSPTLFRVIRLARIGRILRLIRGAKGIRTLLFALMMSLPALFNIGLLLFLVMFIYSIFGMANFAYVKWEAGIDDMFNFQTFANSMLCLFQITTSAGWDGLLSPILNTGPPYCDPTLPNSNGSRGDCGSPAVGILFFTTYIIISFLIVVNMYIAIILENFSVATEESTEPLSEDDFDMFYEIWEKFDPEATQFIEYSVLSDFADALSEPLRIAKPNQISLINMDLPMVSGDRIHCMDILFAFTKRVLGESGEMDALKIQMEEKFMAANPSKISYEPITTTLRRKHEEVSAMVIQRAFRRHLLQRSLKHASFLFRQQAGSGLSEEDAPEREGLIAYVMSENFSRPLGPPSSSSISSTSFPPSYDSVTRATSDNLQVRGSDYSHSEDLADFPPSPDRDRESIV

Cav1.2 = conditions: read-out: Published IC50, Cav1.2; ICa,L; published NTC-801 data ref 27; cited from earlier work
5-HT2C = target: T6, 5-HT2C (Homo sapiens, UniProt P28335); assay: Radioligand binding, [3H]mesulergine; conditions: read-out: Reference: IC50
T6 construct: expressed in transfected cells; host or cells: HEK-293 cells
T6 sequence (P28335 33-458): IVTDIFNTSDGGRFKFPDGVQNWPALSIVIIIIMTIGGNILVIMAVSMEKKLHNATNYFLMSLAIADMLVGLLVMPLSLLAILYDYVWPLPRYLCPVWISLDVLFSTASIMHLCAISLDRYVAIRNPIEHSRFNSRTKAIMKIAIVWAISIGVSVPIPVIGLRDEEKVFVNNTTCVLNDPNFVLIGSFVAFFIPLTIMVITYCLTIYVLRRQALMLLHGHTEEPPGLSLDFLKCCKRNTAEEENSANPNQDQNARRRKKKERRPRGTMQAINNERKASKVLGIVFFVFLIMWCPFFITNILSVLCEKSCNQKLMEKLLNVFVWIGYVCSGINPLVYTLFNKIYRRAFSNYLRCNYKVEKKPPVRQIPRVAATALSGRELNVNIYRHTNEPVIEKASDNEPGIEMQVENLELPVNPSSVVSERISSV

Purinergic Channels P2X = assay: Radioligand binding, [3H]a,b-MeATP, rat urinary bladder; conditions: reference compound run for the assay
Purinergic Channels P2Y = assay: Radioligand binding, [35S]dATPaS; design: species or system rat; conditions: reference compound run for the assay
[1] = target: Benzodiazepine BDZ Central; assay: Radioligand binding, [3H]flunitrazepam; design: species or system rat; conditions: read-out: Reference: IC50
[2] = target: GABA Cl- channel (GABA-gated); assay: Radioligand binding, [35S]TBPS; design: species or system rat; conditions: reference compound run for the assay
Adrenergic α2 = assay: Radioligand binding, [3H]prazosin; design: species or system rat; conditions: reference compound run for the assay
Chemokines CCR1 = target: T7, Chemokines CCR1 (Homo sapiens, UniProt P32246); assay: Radioligand binding, [125I]MIP-1a; conditions: reference compound run for the assay
T7 construct: expressed in transfected cells; host or cells: HEK-293 cells
T7 sequence (P32246 1-355): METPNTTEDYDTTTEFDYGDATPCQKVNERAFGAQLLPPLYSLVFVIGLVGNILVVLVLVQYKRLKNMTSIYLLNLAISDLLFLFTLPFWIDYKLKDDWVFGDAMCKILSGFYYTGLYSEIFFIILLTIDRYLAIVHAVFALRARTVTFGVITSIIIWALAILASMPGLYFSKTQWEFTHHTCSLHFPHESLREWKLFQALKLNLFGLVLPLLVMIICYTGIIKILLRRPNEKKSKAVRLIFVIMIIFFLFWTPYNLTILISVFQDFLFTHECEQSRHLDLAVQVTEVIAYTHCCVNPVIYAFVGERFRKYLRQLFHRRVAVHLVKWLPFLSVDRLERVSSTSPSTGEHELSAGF

TNF-α = assay: Radioligand binding, [125I]TNF-a, U-937 cells; conditions: reference compound run for the assay
SKCa = assay: Radioligand binding, [125I]apamin; design: species or system rat; conditions: reference compound run for the assay
Bombesin BB = assay: Radioligand binding, [125I][Tyr4]bombesin; design: species or system rat; conditions: reference compound run for the assay
Somatostatin sst = assay: Radioligand binding, [125I]Tyr11-somatostatin-14, AtT-20 cells; conditions: reference compound run for the assay

With COc1cc(CC(C)N)c(OC)cc1I (racemic) [(±)DOI] the IC50 (5-HT2B) was 5 nM.
For C[N+]1(C)CCC(OC(=O)C(c2ccccc2)c2ccccc2)CC1 [4-DAMP], the IC50 (Muscarinic M5) was 0.52 nM.
With C[N+](C)(C)CCOC(N)=O [Carbachol, carbachol, reference compound] the “RR interval after carbachol” value (IKACh; BP-G1 group, baseline 155.2 ± 16.3 ms) was 474.2 ± 60.7 ms and the “RR interval after carbachol” value (IKACh; saline control group, baseline 168.6 ± 10.7 ms) was 476.7 ± 77.8 ms.
For Cc1ccnc2cc3c(cc12)OC(C)(C)C=C3 [GAT1572, 2,2,9-trimethyl-2H-pyrano[2,3-g]quinoline], the “inhibitory activity on Kir3.1/4 channel” value (Kir3.1/4 channel) was “not active”.
In the case of Cc1cc(CO)nc2cc3c(cc12)OC(C)(C)C=C3 [GAT1573, (2,2,9-trimethyl-2H-pyrano[2,3-g]quinolin-7-yl)methanol], the “inhibitory activity on Kir3.1/4 channel” value (Kir3.1/4 channel) is reported as “not active”.
For Cc1ccnc2cc3c(cc12)OC(C)(C)[C@H](O)[C@H]3NCCc1ccccc1 [GAT1588, (3R,4S)-2,2,9-trimethyl-4-(phenethylamino)-3,4-dihydro-2H-pyrano[2,3-g]quinolin-3-ol], the “inhibitory activity on Kir3.1/4 channel” value (Kir3.1/4 channel) was “retained comparable inhibitory activity to BP-G1; also recorded: inhibited the channel with comparable activity to BP-G1”.
In the case of Cc1cc(CO)nc2cc3c(cc12)OC(C)(C)[C@H](O)[C@H]3NCCc1ccccc1 [NTC-801], the IC50 (Kir3.1/3.4) is listed as 0.7 nM, the IC50 (Kir3.1/3.2) is listed as 34 nM and the IC50 (GP IKACh) is listed as 7 nM. The IC50 (Kir2.1) was over 30000 nM, the IC50 (Kir6.2/SUR2A) was 7800 nM and the IC50 (Kv1.5) was over 30000 nM. For the same molecule, the IC50 (Kv4.3) was over 11600 nM, the IC50 (HCN4) was over 30000 nM and the IC50 (Kv7.1/KCNE1) was over 30000 nM. For the same molecule, the IC50 (hERG) was over 30000 nM, the IC50 (Nav1.5) was 8300 nM and the IC50 (Cav1.2) was over 30000 nM.
Work on COc1cc(OC)c(C(=O)CCCCN2CCC3(CC2)NC(=O)NC3=O)cc1NS(=O)(=O)c1ccc(C(F)(F)F)cc1 [RS 102221] yielded an IC50 (5-HT2C) of 3.1 nM.
For Nc1ncnc2c1ncn2[C@@H]1O[C@H](COP(=O)(O)CP(=O)(O)OP(=O)(O)O)[C@@H](O)[C@H]1O [a,b-MeATP], the IC50 (Purinergic Channels P2X) was 3.5 nM.
Molecule Nc1ncnc2c1ncn2[C@H]1C[C@H](O)[C@@H](COP(O)(=S)OP(=O)(O)OP(=O)(O)O)O1 (stereo partly drawn) [dATPaS] has an IC50 (Purinergic Channels P2Y) of 20 nM.
Work on CN1C(=O)CN=C(c2ccccc2)c2cc(Cl)ccc21 [diazepam] yielded an IC50 [1] of 8.6 nM.
For C=C(C)[C@@H]1[C@H]2OC(=O)[C@@H]1[C@]1(O)C[C@H]3O[C@]34C(=O)O[C@H]2[C@]14C [picrotoxinin, reference compound], the IC50 [2] was 150 nM.
COc1cc2nc(N3CCN(C(=O)c4ccco4)CC3)nc(N)c2cc1OC [prazosin] gave an IC50 (Adrenergic α2) of 0.182 nM.
With MIP-1a: assay reference compound the IC50 (Chemokines CCR1) was 0.04 nM.
Work on TNF-a yielded an IC50 (TNF-α) of 0.1 nM.
In the case of “apamin (CNCKAPETALCARRCQQH; ends and bridges not checked; cysteine pairing not given here; UniProt P01500 28-45, looked up)”, the IC50 (SKCa) is reported as 0.0091 nM.
bombesin gave an IC50 (Bombesin BB) of 0.205 nM.
With somatostatin-14 the IC50 (Somatostatin sst) was 0.2 nM.
